Measured values taken from patent publication US20230355605A1, “DRUG FOR ENHANCING FIBRINOLYTIC SYSTEM, AND USE THEREFOR” (priority 2020, published 2023).

Experiments:
[1] = test system: mouse model of bleomycin-induced pulmonary fibrosis; assay: Mouse model of bleomycin-induced pulmonary fibrosis; format: in vivo
Description: The improvement effect of the present compound on pulmonary fibrosis (remodeling after lung damage) was evaluated using a mouse model of bleomycin-induced pulmonary fibrosis. […] Because of similarity of histopathological changes to pulmonary fibrosis in humans, this mouse model is widely used for the evaluation of the drug efficacy.
To a fibrosis mouse model (fibrosis model group) given a single dose of bleomycin (1.2 mg/mL), the present compound (0.75 mg/kg/day) was orally administered for 21 days (present compound administration group, n = 9), and biochemical analysis of the lungs and measurement of clinical conditions of the lungs were performed on day 22. For comparison, instead of the present compound, the solvent used to dissolve the present compound was administered to a fibrosis model group in the same manner (vehicle group, n = 10), and biochemical analysis and measurement of clinical conditions of the lungs were performed. As a positive control group, a dexamethasone administration group (0.25 mg/kg administration, n = 9) was used. The biochemical analysis was performed using lung hydroxyproline values as an index. The clinical conditions of the lungs were evaluated by performing Masson’s trichrome staining and calculating Ashcroft scores according to a report of Ashcroft et al. (Ashcroft T et al., J Clin Pathol, 1988; 41:467). The clinical conditions were confirmed by comparing a normal mouse group (normal group, n = 10) with the vehicle group (n = 10), and the improvement effect of the present compound on pulmonary fibrosis was evaluated by comparing the vehicle group (n = 10) with the present compound administration group (n = 9). Differences between the mean values of the groups were tested by the Bonferroni selected pairs test using Prism 4 (GraphPad Software).
Table 1 and FIG. 3(A) and FIG. 3(B) show the results of comparisons of the lung hydroxyproline values and the Ashcroft scores in the groups. The mean values of the groups are expressed as mean±SD, and examination was performed at a 5% significance level.

[2] = test system: CML patients; conditions: according to the NCCN guidelines; cited from earlier work
[3] = test system: cynomolgus monkey model of saphenous arterial thrombus; assay: Cynomolgus monkey model of saphenous arterial thrombus (PIT model); format: in vivo; conditions: oral administration to monkeys
Description: The thrombus formation inhibitory effect of the present compound was evaluated using a cynomolgus monkey model of saphenous arterial thrombus (PIT model) .
Before the procedure, the present compound suspended in a 0.5% CMC-Na aqueous solution was orally administered to test groups of cynomolgus monkeys at dosages of 0.1, 0.3, 1, and 3 mg/kg. […] A light irradiation probe was placed on a saphenous artery of each cynomolgus monkey to cause thrombus formation by applying green light of 540 nm for 20 minutes at the time of intravenously administering rose bengal (20 mg/kg). A decrease in blood flow due to this thrombus formation was measured with a pulse Doppler blood flowmeter, and the thrombus formation inhibitory effect of the present compound was evaluated by measuring the occlusion time on the first day and the cumulative occlusion time.

[4] = test system: rats; assay: 4-week repeated oral dose toxicity study in rats; format: in vivo; conditions: rats; study details of the similar compound not given
[5] = test system: COVID-19 patients with moderate to severe lung damage; conditions: 13 COVID-19 patients, inhaled; cited from earlier work
[6] = day 22, present compound 0.75 mg/kg/day oral 21 days, dexamethasone 0.25 mg/kg, mean±SD

Molecule: C[C@@H]1C[C@H]2[C@@H]3CCC4=CC(=O)C=C[C@]4(C)[C@@]3(F)[C@@H](O)C[C@]2(C)[C@@]1(O)C(=O)CO [Dexamethazone, dexamethasone, reference compound]
- Ashcroft score compared with vehicle group ([1]; 5% significance level): significantly lower
- lung hydroxyproline value compared with vehicle group ([1]; 5% significance level): no significant difference
- Ashcroft score [1, 6]: 2.3±0.1
- Lung hydroxyproline value [1, 6]: 71.0±6.7 µg/left lung

Molecule: Cc1ccc(NC(=O)c2ccc(CN3CCN(C)CC3)cc2)cc1Nc1nccc(-c2cccnc2)n1 [imatinib]
- patients who could maintain DMR for more than 2 years after 3 years of treatment [2]: about 5 % of all CML cases

Molecule: O=C(Nc1ccc(Cl)cc1C(=O)O)c1cccc(-c2ccccc2)c1 [similar compound, 2-([biphenyl-3-ylcarbonyl]amino)-5-chlorobenzoic acid, reference compound]
- minimum effective dosage [3]: 0.3 mg/kg
- no-observed-adverse-effect level [4]: 20 mg/kg/day

B1: plasminogen: inhaled plasminogen given to COVID-19 patients in the clinical study by Wu et al. (protein, UniProt P00747 20-810, looked up)
Plasminogen: EPLDDYVNTQGASLFSVTKKQLGAGSIEECAAKCEEDEEFTCRAFQYHSKEQQCVIMAENRKSSIIIRMRDVVLFEKKVYLSECKTGNGKNYRGTMSKTKNGITCQKWSSTSPHRPRFSPATHPSEGLEENYCRNPDNDPQGPWCYTTDPEKRYDYCDILECEEECMHCSGENYDGKISKTMSGLECQAWDSQSPHAHGYIPSKFPNKNLKKNYCRNPDRELRPWCFTTDPNKRWELCDIPRCTTPPPSSGPTYQCLKGTGENYRGNVAVTVSGHTCQHWSAQTPHTHNRTPENFPCKNLDENYCRNPDGKRAPWCHTTNSQVRWEYCKIPSCDSSPVSTEQLAPTAPPELTPVVQDCYHGDGQSYRGTSSTTTTGKKCQSWSSMTPHRHQKTPENYPNAGLTMNYCRNPDADKGPWCFTTDPSVRWEYCNLKKCSGTEASVVAPPPVVLLPDVETPSEEDCMFGNGKGYRGKRATTVTGTPCQDWAAQEPHRHSIFTPETNPRAGLEKNYCRNPDGDVGGPWCYTTNPRKLYDYCDVPQCAAPSFDCGKPQVEPKKCPGRVVGGCVAHPHSWPWQVSLRTRFGMHFCGGTLISPEWVLTAAHCLEKSPRPSSYKVILGAHQEVNLEPHVQEIEVSRLFLEPTRKDIALLKLSSPAVITDKVIPACLPSPNYVVADRTECFITGWGETQGTFGAGLLKEAQLPVIENKVCNRYEFLNGRVQSTELCAGHLAGGTDSCQGDSGGPLVCFEKDKYILQGVTSWGLGCARPNKPGVYVRVSRFVTWIEGVMRNN
- lung damage [5]: rapid improvement in lung damage

B2: plasmin: as printed for NPL 27; probably the inhaled plasminogen of b10 (protein, UniProt P00747 20-810, looked up)
Plasminogen: B1 Plasminogen
- lung damage [5]: improved
